Laboratory results from PMC12557365 (Journal of Medicinal Chemistry, 2025).
Where two headings read alike, the source gives them in different places.

How the values were obtained:
[1] = biological target: SARS-CoV-2 3CL^pro (Severe acute respiratory syndrome coronavirus 2, UniProt P0DTD1); assay: biochemical; type: biochemical
[2] = test system: rgSARS-CoV-2 with 3CL^pro mutations; type: cell-based, SARS-CoV-2
[3] = test system: SARS-CoV-2 variants; assay: microbe, parasite or virus in culture; type: cell-based
[4] = test system: SARS-CoV-2 Omicron strains; assay: microbe, parasite or virus in culture; type: cell-based; conditions: Severe acute respiratory syndrome coronavirus 2, Epithelial cell, read-out: EC90 against the Omicron variants in hAECs

Structure (SMILES): Cc1cncc(-n2c(=O)c(Cc3cc(F)c(F)c(F)c3)c(N3CCCC3)n(CC#N)c2=O)c1 [Compound 5, 2-(3-(5-Methylpyridin-3-yl)-2,4-dioxo-6-(pyrrolidin-1-yl)-5-(3,4,5-trifluorobenzyl)-3,4-dihydropyrimidin-1(2H)-yl)-acetonitrile]
- decrease in activity versus compound 4 [1]: > 10 -fold

Structure (SMILES): CC(C)(C)[C@H](NC(=O)C(F)(F)F)C(=O)N1C[C@H]2[C@@H]([C@H]1C(=O)N[C@H](C#N)C[C@@H]1CCNC1=O)C2(C)C [nirmatrelvir, reference compound]
- EC50 [2]: 3150 ± 1010 nM

Structure (SMILES): Cn1cnc(Cn2c(=O)[nH]/c(=N\c3cc4cn(C)nc4cc3Cl)n(Cc3cc(F)c(F)cc3F)c2=O)n1 [ensitrelvir]
- EC50 [3]: 259 ± 41 nM

Structure (SMILES): CCC(CC)COC(=O)[C@H](C)N[P@](=O)(OC[C@H]1O[C@@](C#N)(c2ccc3c(N)ncnn23)[C@H](O)[C@@H]1O)Oc1ccccc1 [remdesivir]
- EC50 [2]: 2010 ± 80 nM

Structure (SMILES): N#CCn1c(N2CC3(C2)CC(F)(F)C3)c(-c2ccc(F)c(Cl)c2)c(=O)n(-c2cncc(Cl)c2)c1=O [Compound 17, [5-(3-Chloro-4-fluorophenyl)-3-(5-chloropyridin-3-yl)-6-(6,6-difluoro-2-azaspiro[3.3]-heptan-2-yl)-2,4-dioxo-3,4-dihydropyrimidin-1(2H)-yl]-acetonitrile]
- EC90 [4]: 2.31 to 2.41 nM
- EC50 ([3]; Severe acute respiratory syndrome coronavirus 2, VeroE6/TMPRSS2, read-out: EC50 against various SARS-CoV-2 variants): 2.27 to 12.5 nM
